In US7807691B2, “Substituted N-arylpyrrolidines as selective androgen receptor modulators” (Eli Lilly and Company, priority 2005, dated 2010):
Read-outs that look alike come from different tables or passages of the source.

How the values were obtained:
[1] = molecular target: T1, human AR (androgen receptor) (Homo sapiens, UniProt P10275); assay: Steroid hormone nuclear receptor binding assay (AR binding)
T1 construct: expressed in transfected cells; host or cells: 293 cells (293-AR lysate)
T1 sequence (P10275 1-920): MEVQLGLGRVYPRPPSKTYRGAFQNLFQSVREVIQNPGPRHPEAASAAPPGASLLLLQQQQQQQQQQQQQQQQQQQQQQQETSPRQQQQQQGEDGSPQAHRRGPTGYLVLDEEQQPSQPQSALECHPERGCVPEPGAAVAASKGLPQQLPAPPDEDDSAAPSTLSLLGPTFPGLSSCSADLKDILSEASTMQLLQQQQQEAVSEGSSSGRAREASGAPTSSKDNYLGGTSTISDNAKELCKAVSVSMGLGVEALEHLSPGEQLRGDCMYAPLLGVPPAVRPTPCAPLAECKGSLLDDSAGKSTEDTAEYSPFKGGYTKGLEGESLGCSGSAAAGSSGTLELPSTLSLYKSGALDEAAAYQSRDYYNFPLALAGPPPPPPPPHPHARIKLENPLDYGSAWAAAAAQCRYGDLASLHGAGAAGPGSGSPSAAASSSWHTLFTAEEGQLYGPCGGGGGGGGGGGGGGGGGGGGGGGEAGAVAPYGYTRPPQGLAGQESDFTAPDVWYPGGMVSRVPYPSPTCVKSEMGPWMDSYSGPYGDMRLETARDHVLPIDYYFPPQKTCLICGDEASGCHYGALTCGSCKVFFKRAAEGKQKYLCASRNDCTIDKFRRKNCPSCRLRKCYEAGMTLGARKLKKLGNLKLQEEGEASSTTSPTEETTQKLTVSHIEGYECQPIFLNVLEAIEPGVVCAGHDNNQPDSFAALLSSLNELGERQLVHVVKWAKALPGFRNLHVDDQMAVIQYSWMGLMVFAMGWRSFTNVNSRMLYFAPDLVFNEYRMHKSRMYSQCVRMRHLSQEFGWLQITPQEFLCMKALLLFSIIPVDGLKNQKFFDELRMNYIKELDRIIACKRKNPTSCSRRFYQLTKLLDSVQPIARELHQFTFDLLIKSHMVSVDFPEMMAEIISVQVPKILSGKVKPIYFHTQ
Experimental: Cell lysates from 293 cells overexpressing human GR (glucocorticoid receptor), AR (androgen receptor), MR (mineralocorticoid receptor) or PR (progesterone receptor) are used for competition binding assays to determine Ki values for test compounds. Briefly, competition binding assays are run in a buffer containing 20 mM Hepes, pH 7.6, 0.2 mM EDTA, 75 mM NaCl, 1.5 mM MgCl2, 20% glycerol, 20 mM sodium molybdate, 0.2 mM DTT, 20 ug/ml aprotinin and 20 ug/ml leupeptin, using either 0.3 nM ^3H-dexamethasone for GR binding, 0.36 nM ^3H-methyltrienolone for AR binding, 0.25 nM ^3H-aldosterone for MR binding, or 0.29 nM ^3H-methyltrienolone for PR binding, and either 20 ug 293-GR lysate, 22 ug 293-AR lysate, 20 ug 293-MR lysate or 40 ug 293-PR lysate per well. Competing compounds are added at various concentrations ranging from about 0.01 nM to 10 μM. Non-specific binding is determined in the presence of 500 nM dexamethasone for GR binding, 500 nM aldosterone for MR binding, or 500 nM methyltrienolone for AR and PR binding. The binding reaction (140 μl) is incubated for overnight at 4° C., then 70 μl of cold charcoal-dextran buffer (containing per 50 ml of assay buffer, 0.75 g of charcoal and 0.25 g of dextran) is added to each reaction. Plates are mixed 8 minutes on an orbital shaker at 4° C. Plates are then centrifuged at 3,000 rpm at 4° C. for 10 minutes. An aliquot of 120 μl of the mix is transferred to another 96-well plate and 175 μl of Wallac Optiphase “Hisafe 3” scintillation fluid is added to each well. Plates are sealed and shaken vigorously on an orbital shaker. After an incubation of 2 hrs, plates are read in a Wallac Microbeta counter. The data is used to calculate an IC50 and % Inhibition at 10 μM. The Kd for ^3H-dexamethasone for GR binding, ^3H-methyltrienolone for AR binding, ^3H-aldosterone for MR binding, or ^3H-methyltrienolone for PR binding, is determined by saturation binding. The IC50 values for test compounds are converted to Ki using Cheng-Prusoff equation and the Kd determined by saturation binding assay.
Binding assay protocols for steroid hormone nuclear receptors similar to those described above can be readily designed by the ordinarily skilled artisan.

[2] = molecular target: T2, human androgen receptor (AR) (Homo sapiens, UniProt P10275); assay: C2C12 AR/ARE reporter assay; format: cell-based; details: for EC50: mouse myoblast C2C12 cells, luciferase reporter, 48 h; for C2C12 % Efficacy: versus maximum stimulation obtained with 10 nM methyltrienolone
T2 construct: expressed in transfected cells; host or cells: mouse myoblast C2C12 cells, transiently co-transfected with FuGENE
T2 sequence (P10275 1-920): T1 sequence (P10275 1-920)
Experimental: As an indicator of agonist activity in muscle tissue, the C2C12 AR/ARE reporter assay is performed. Briefly, mouse myoblast C2C12 cells are co-transfected using FuGENE™. […] Cells are transfected in T150 cm^2 flasks in DMEM media with 4% or 10% Fetal Bovine Serum (FBS). After a 5 hour incubation, transfected cells are trypsinized, plated in 96 well dishes in DMEM media containing 10% charcoal-stripped FBS, incubated for 2 h and then exposed to various concentrations of test compounds ranging from about 0.01 nM to 10 μM. After 48 h of incubations with compounds, cells are lysed and luciferase activity is determined using standard techniques. Data is fit to a 4 parameter-fit logistics to determine EC50 values. The % efficacy is determined versus maximum stimulation obtained with 10 nM methyltrienolone. […]

[3] = AR binding Ki (nM), 293-AR cell lysate, 3H-methyltrienolone competition
[4] = C2C12, read-out: C2C12 % Efficacy, versus maximum stimulation obtained with 10 nM methyltrienolone, average

SMILES | Ki [1, 3] | Emax [2, 4] | EC50 ([2]; C2C12 EC50(nM), average) | C2C12 % Efficacy ([2]; average) | Ki [1] | Emax ([2]; C2C12, read-out: C2C12 % Efficacy) | EC50 ([2]; average, read-out: C2C12 EC50)
CCC1CCC(c2ccccc2)N1c1ccc(C#N)c(Cl)c1 (mixture of isomers) [Example 22, 2-Chloro-4-(2-ethyl-5-phenyl-pyrrolidin-1-yl)-benzonitrile] | 4.9 nM | 85.5% | 17.7 nM |  |  |  | 
CCC1CCC(c2ccccc2)N1c1ccc(C#N)c(Cl)c1C (mixture of isomers) [Example 23, 2-Chloro-4-(2-ethyl-5-phenyl-pyrrolidin-1-yl)-3-methyl-benzonitrile] | 27.1 nM | 70.1% | 131 nM |  |  |  | 
CCC1CCC(c2ccccc2)N1c1ccc(C#N)c(Cl)c1 (single isomer, unassigned) [Example 22a, 2-Chloro-4-(2-ethyl-5-phenyl-pyrrolidin-1-yl)-benzonitrile] | 122 nM |  | 32.4 nM | 92.4% |  |  | 
CCC1CCC(c2ccccc2)N1c1ccc(C#N)c(Cl)c1 (single isomer, unassigned) [Example 22b, 2-Chloro-4-(2-ethyl-5-phenyl-pyrrolidin-1-yl)-benzonitrile] | 39.9 nM |  | 25 nM | 80.6% |  |  | 
CCC1CCC(c2ccccc2)N1c1ccc(C#N)c(Cl)c1 (single isomer, unassigned) [Example 22c, 2-Chloro-4-(2-ethyl-5-phenyl-pyrrolidin-1-yl)-benzonitrile] | 39.8 nM |  | 135 nM | 61.3% |  |  | 
CCC1CCC(c2ccccc2)N1c1ccc(C#N)c(Cl)c1 (single isomer, unassigned) [Example 22d, 2-Chloro-4-(2-ethyl-5-phenyl-pyrrolidin-1-yl)-benzonitrile] | 2.2 nM |  | 6.1 nM | 66.5% |  |  | 
Cc1c(N2CCCC2c2ccccc2)ccc(C#N)c1Cl (stereo not drawn) [Example 1, 2-Chloro-3-methyl-4-(2-phenyl-pyrrolidin-1-yl)-benzonitrile] | 1.4 nM | 67.6% | 1.2 nM |  |  |  | 
Cc1c(N2CCCC2c2ccc(Cl)cc2)ccc(C#N)c1Cl (stereo not drawn) [Example 2] | 4.3 nM | 61% | 36.7 nM |  |  |  | 
Cc1c(N2CCCC2c2ccc(F)cc2)ccc(C#N)c1Cl (stereo not drawn) [Example 3] | 2.7 nM | 51.1% | 5.1 nM |  |  |  | 
Cc1c(N2CC(C)(C)CC2c2ccccc2)ccc(C#N)c1Cl (stereo not drawn) [Example 4] | 6.6 nM | 84.9% | 11.2 nM |  |  |  | 
COc1cccc(C2CCCN2c2ccc(C#N)c(Cl)c2C)c1 (stereo not drawn) [Example 5] | 1.1 nM | 102% | 0.9 nM |  |  |  | 
COc1ccccc1C1CCCN1c1ccc(C#N)c(Cl)c1C (stereo not drawn) [Example 6] | 7 nM | 81.7% | 177 nM |  |  |  | 
COc1ccc(C2CCCN2c2ccc(C#N)c(Cl)c2C)cc1 (stereo not drawn) [Example 7] | 3.4 nM | 68.9% | 28.3 nM |  |  |  | 
Cc1c(N2CCCC2c2ccccc2C(F)(F)F)ccc(C#N)c1Cl (stereo not drawn) [Example 8] | 72.9 nM | -38.5% |  |  |  |  | 
Cc1c(N2CCCC2c2ccccn2)ccc(C#N)c1Cl (stereo not drawn) [Example 10] | 4.7 nM | 79.8% | 40.8 nM |  |  |  | 
Cc1c(N2CCCC2c2ccncc2)ccc(C#N)c1Cl (stereo not drawn) [Example 11] | 6 nM | 76.8% | 6.8 nM |  |  |  | 
CSc1cccc(C2CCCN2c2ccc(C#N)c(Cl)c2C)c1 (stereo not drawn) [Example 13] | 5.8 nM | 84.7% | 9.7 nM |  |  |  | 
CSc1ccc(C2CCCN2c2ccc(C#N)c(Cl)c2C)cc1 (stereo not drawn) [Example 14] | 13.4 nM | 73.1% | 21.2 nM |  |  |  | 
Cc1c(N2CCCC2c2cncnc2)ccc(C#N)c1Cl (stereo not drawn) [Example 15] | 2.8 nM | 85.1% | 0.4 nM |  |  |  | 
N#Cc1ccc(N2CCCC2c2cccnc2)cc1Cl (stereo not drawn) [Example 16] | 17.4 nM | 42.6% | 109 nM |  |  |  | 
CC1(c2ccc3c(c2)OCO3)CCCN1c1ccc(C#N)c(Cl)c1 (stereo not drawn) [Example 17] | 27.3 nM | 13.2% |  |  |  |  | 
COc1cccc(C2(C)CCCN2c2ccc(C#N)c(Cl)c2)c1 (stereo not drawn) [Example 18] | 24.4 nM | 77.9% | 9.8 nM |  |  |  | 
N#Cc1ccc(N2CCCC2c2ccc3c(c2)OCO3)cc1C(F)(F)F (stereo not drawn) [Example 19] | 17.6 nM | -12.4% |  |  |  |  | 
CC1(c2ccc3c(c2)OCO3)CCCN1c1ccc(C#N)c(C(F)(F)F)c1 (stereo not drawn) [Example 20] |  |  |  |  | 21.1 nM | 4.8% | 516 nM
Cc1c(N2CCCC2c2cccc(S(C)(=O)=O)c2)ccc(C#N)c1Cl (stereo not drawn) [Example 21, 2-Chloro-4-[2-(3-methanesulfonyl-phenyl)-pyrrolidin-1-yl]-3-methyl-benzonitrile] | 3 nM | 58.1% | 103 nM |  |  |  | 
CC1(C)CC(c2ccc3c(c2)OCO3)N(c2ccc(C#N)c(Cl)c2)C1 (stereo not drawn) [Example 24, 4-[2-(1,3-benzodioxol-5-yl)-4,4-dimethylpyrrolidin-1-yl]-2-chlorobenzonitrile] | 12.7 nM | 23.4% | 397 nM |  |  |  | 
Cc1nnc(C2CCCN2c2ccc(C#N)c(Cl)c2C)o1 (stereo not drawn) [Example 25, 2-chloro-3-methyl-4-[2-(5-methyl-1,3,4-oxadiazol-2-yl)pyrrolidin-1-yl]benzonitrile] | 3.7 nM | 80.5% | 0.9 nM |  |  |  | 
